Test systems include HOP-18 NSCLC; DMS 114 small cell lung; SNB-78 CNS; LXFL 529 NSCLC; M19-MEL melanoma; DMS 273 small cell lung.
What all share (experiment): growth of human tumour cells (NCI), 48 h

Several values for one entry are separate records, joined by “and”; a condition that tells them apart may be missing. Equal entries are not always repeated.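 96-well plates; 48 h exposure; 5 concentrations. Endpoints by linear interpolation between flanking doses. Not reached: highest tested concentration assigned. At the TGI there is no net growth.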 Some results are limits rather than exact numbers.

For the compound `NC1=NS(=O)(=O)N=C(N)C1=Cc1ccc([N+](=O)[O-])o1`, the TGI with HOP-18 NSCLC is 31.8 µM; with DMS 114 small cell lung, 31.9 µM; in the experiment on SNB-78 CNS, 47.9 µM; in the experiment with LXFL 529 NSCLC, 30.8 µM; in the experiment on M19-MEL melanoma, 30 µM; in the experiment on DMS 273 small cell lung it was 30.3 µM.
On to `c1ccc(C2=NN3CN(N2)c2ccccc2OCCCOc2ccccc23)cc1`, for which the TGI in the experiment on DMS 114 small cell lung, with SNB-78 CNS, in the experiment with LXFL 529 NSCLC, with M19-MEL melanoma and in the experiment on DMS 273 small cell lung was over 100 µM in each case.
Turning to `CC(C)(CN1CCCCC1)C(=O)CC(SCCS(=O)(=O)O)c1ccc(Br)cc1` (configuration not stated), the TGI amounted to 3.57 µM in the experiment with HOP-18 NSCLC; 3.46 µM in the experiment with DMS 114 small cell lung; 77.7 µM with SNB-78 CNS; 2.7 µM in the experiment on LXFL 529 NSCLC; 5.05 µM in the experiment on M19-MEL melanoma; 3.58 µM in the experiment with DMS 273 small cell lung.
For `Cc1nc2c(n1Cc1ccc(Cl)cc1)C(=O)c1ccccc1C2=O`, the TGI with SNB-78 CNS, in the experiment with LXFL 529 NSCLC, in the experiment on M19-MEL melanoma and in the experiment with DMS 273 small cell lung was over 75 µM in each case.
`CCCCN(CCCC)C(=NCc1ccccc1)NC#N`: the TGI with HOP-18 NSCLC was over 100 µM; in the experiment on SNB-78 CNS, 70.2 µM; in the experiment on LXFL 529 NSCLC it was 31.2 µM; in the experiment on M19-MEL melanoma, 36.1 µM; with DMS 273 small cell lung, 75.7 µM.
Turning to `O=S1(=O)NNC(=NCc2ccc(F)cc2)c2ccccc21`, the TGI in the experiment on SNB-78 CNS, with LXFL 529 NSCLC, with M19-MEL melanoma and in the experiment with DMS 273 small cell lung was over 100 µM throughout.
As to `Brc1ccc(N2C[N+](c3ccc(Br)cc3)=NC(c3ccccc3)=N2)cc1`, the TGI was 28 µM and > 100 µM in the experiment with HOP-18 NSCLC; 34.7 µM and 97.8 µM with DMS 114 small cell lung; 70.6 µM and > 100 µM with SNB-78 CNS; 23 µM and > 100 µM with LXFL 529 NSCLC; 29.7 µM and > 100 µM in the experiment on M19-MEL melanoma; 21.1 µM and > 100 µM with DMS 273 small cell lung.
For the compound `O=C(c1cccs1)N(C(=S)N1CCN(c2ccccc2)CC1)c1ccccc1`, the TGI with HOP-18 NSCLC, in the experiment on DMS 114 small cell lung, in the experiment with SNB-78 CNS, in the experiment with LXFL 529 NSCLC, in the experiment with M19-MEL melanoma and in the experiment on DMS 273 small cell lung was over 100 µM throughout.

The values are drawn from PubChem BioAssay (NCI).
